The source of these data is US20090047287A1, “MODULATION OF BONE FORMATION” (Wyeth, priority 2006, published 2009).

In data set [1] the test system is human mesenchymal stem cells (hMSC). As to the kind of experiment: Mineralized matrix formation in hMSC, alizarin red-S staining. Type of data set: cell-based. Here is the method:
Human MSC were seeded at 6,000/cm^2 in 12-, or 6-well plates and allowed to adhere and proliferate overnight. Cells were infected for 24 h in 0.4 ml/cm^2 MSCGM using Ror2, Ror2KD, or β-gal adenoviruses at multiplicity of infection (MOI)=750 in presence of hCAR (MOI=750) to improve infection efficiency. After 24 h, cells were washed once in PBS and MSCGM, MSCGM supplemented with 0.05 mM ascorbic acid and 10 mM β-glycerophosphate, or MSCGM containing adipogenic supplements (PT-3004, Cambrex) were added. Where indicated, 100 nM dexamethasone (dex) and/or the indicated antibodies were added to the medium. For shRNA infection, cells were seeded at 6,000/cm^2 in 12- or 6-well plates and allowed to adhere and proliferate for 3 days. Cells were infected for 72 h in 0.4 ml/cm^2 MSCGM using adenoviruses coding for Ror2-specific shRNA or EGFP-specific shRNA at 4,000 viral particles per cell (based on the original seeding density) in presence of hCAR (MOI=750). After 72 h, cells were washed once in PBS, and MSCGM or MSCGM supplemented with 0.05 mM ascorbic acid, 10 mM β-glycerophosphate were added. Where indicated 100 nM dex and/or specific antibodies were added. Every 5 days, either the entire medium or ½ of it was replaced with fresh medium.
Formation of mineralized nodules by hMSC was determined on 12-well plates by alizarin red-S histochemical staining. The cells and matrix were fixed at RT for 1 h with 70% (v/v) ethanol, washed with de-ionized water and stained for 10 min at RT with 40 mM alizarin red-S, pH 4.2. The stained matrix was washed with de-ionized water and photographed. To quantify the level of alizarin red-S staining, the dye was eluted with 1 ml/well of 10% (w/v) Cetylpyridinium Chloride. Alizarin red-S in the eluted samples was quantified (versus a standard curve of 0-800 μM dye) at 562 nm with a microplate reader.

The next data set concerns the target T1, Ror2 receptor (Homo sapiens, UniProt Q01974).
T1 construct: expressed in transfected cells; host or cells: U2OS
Put plainly: Ror2 dimerization in U2OS cells, Flag/His-tagged Ror2 co-immunoprecipitation. In kind it is cell-based. The conditions noted are these: antibody 1 h at 37 C, vs non-specific goat IgG. Here is the method: For Ror2 plasmid transfections, U2OS cells were seeded at ˜80% confluent density and transfected 24 h later with 11 μg of total plasmid DNA per 19.6 cm^2 using Fugene6 transfection reagent (Roche Applied Science, Indianapolis, Ind.) per manufacturer's instructions. For siRNA transfections, U2OS cells were plated on 6-well plates at 52,000 cells/cm^2 and transfected 24 h later with 25 nM of Ror2 siRNA or non-specific siRNA (both from Dharmacon Inc., Lafayette, Colo.) using 10 μl of Lipofectamine 2000 reagent per manufacturer's instructions.
(§1) Cells were solubilized in lysis buffer (150 mM NaCl, 50 mM Tris-HCl, pH 7.5, 1 mM EDTA, 1% Triton X100) supplemented with protease and phosphatase inhibitor cocktails (Sigma) and the extracts were clarified by centrifugation at 10,000×g for 10 min at 4° C. For Flag immunoprecipitation, 1 mg of total cell lysates was incubated with 30 μl of M2 Flag affinity agarose (Sigma) for 1 h with rotation at 4° C. The beads were collected by centrifugation and washed three times in lysis buffer containing 350 mM NaCl and three times in lysis buffer. For 14-3-3β precipitation, 15 μl of 14-3-3β antibody was incubated with 30 μl of protein A sepharose in 1 ml of lysis buffer overnight at 4° C. and the beads were collected by centrifugation and washed in lysis buffer prior to addition of 1 mg of total cell lysates. […]

Another data set has as its target T2, Ror2 tyrosine kinase (Homo sapiens, UniProt Q01974).
T2 construct: western immunoblotting for the endogenous Ror2 protein; endogenous in cells; host or cells: U2OS
Put plainly: Ror2 activation in U2OS cells, phosphotyrosine precipitation, Ror2 blot. In kind it is cell-based. The note with it: untransfected U2OS cells, antibody 1 h at 37° C., vs IgG control. Here is the method:
as §1, with “lysates. The binding reaction was carried out for 2 h at 4° C. with mild rotation and the beads were collected and washed as for Flag precipitation. For phosphotyrosine precipitation, 1 mg (for detecting over-expressed proteins) or 1.5 mg (for detecting endogenous proteins) of cellular extract was added to 100 μl of G410 beads and allowed to attach for 3 h at 4° C. At this time, P-Tyr-100 immobilized antibody (100 μl) was added to the mix for an additional 3 h. All beads were collected by centrifugation and washed as for Flag precipitation.” for “lysates.”

A further data set deals with 14-3-3β protein. As to the kind of experiment: Ror2 activation in U2OS cells, phosphotyrosine precipitation, 14-3-3β blot. Type of data set: cell-based, human. The note with it: untransfected U2OS cells, antibody 1 h at 37° C., vs IgG control. The procedure:
as §1, with “lysates. The binding reaction was carried out for 2 h at 4° C. with mild rotation and the beads were collected and washed as for Flag precipitation. For phosphotyrosine precipitation, 1 mg (for detecting over-expressed proteins) or 1.5 mg (for detecting endogenous proteins) of cellular extract was added to 100 μl of G410 beads and allowed to attach for 3 h at 4° C. At this time, P-Tyr-100 immobilized antibody (100 μl) was added to the mix for an additional 3 h. All beads were collected by centrifugation and washed as for Flag precipitation.” for “lysates.”

In the next data set the test system is mouse calvarial bones. As to the kind of experiment: Ex vivo mouse calvarial culture with shRNA adenovirus and antibody, histomorphometry (Bioquant). Type of data set: cell-based. The note with it: mouse calvariae, 7 days; shRNA 5×10^7 viral particles/ml, antibody 12 μg/ml; vs scrambled shRNA and IgG. Here is the method: We next tested if in vitro effects of Ror2 activation and 14-3-3β inhibition translate into increased bone formation in ex vivo organ cultures. Calvarial bones of 4 days old mouse littermates were infected with adenoviruses containing scrambled shRNA or 14-3-3β-specific shRNA at 5×10^7 viral particles/ml; and 48 h later were treated with 12 μg/ml of anti-Ror2 antibody or non-specific IgG in presence of 15 μg/ml calcein. After 7 days of culture with adenoviruses and antibodies, the bones were stained with hematoxylin-eosin and consistent 300 μm stretches (450 μm away from frontal sutures) were subjected to histomorphometric analysis using Bioquant-NOVA MR 5.50.8 (Nashville, Tenn.). Under control conditions of scrambled shRNA infection and IgG treatment, 600 μm length of calvaria contained 9394±1333 μm^2 of bone area and 39.5±7.4 osteoblasts.

The next data set addresses T3, Ror2-TrkB chimera (Homo sapiens, UniProt Q01974, T245A).
T3 construct: extracellular domain of Ror2 (aa 1-407) fused to the transmembrane and intracellular domains of TrkB (aa 432-822); expressed in transfected cells
Put plainly: Ror2-TrkB chimera CRE-luciferase reporter assay in HEK293 cells. In kind it is cell-based. The note with it: HEK-CRE cells expressing Ror2-TrkB chimera, 24 h, compared to non-specific IgG. From the text: FIG. 12 illustrates generation of a high throughput, high sensitivity assay for Ror2 activity. A. Schematic representation of the assay that utilizes the signaling pathway of the TrkB receptor. The TrkB receptor is activated by ligand-induced homo-dimerization that causes phosphorylation of Erk and stimulation of the cAMP response element (CRE) in the promoter of target genes. We generated a chimeric receptor consisting of the extracellular domain of Ror2 (aa 1-407) fused to the transmembrane and intracellular domains of TrkB (aa 432-822). When using this chimera, agents that cause Ror2 dimerization activate TrkB signaling pathway and this activation can be assessed by a CRE promoter-luciferase reporter assay. B. HEK293 cells were stably transfected with the Ror2-TrkB chimera and CRE-luciferase plasmids, treated with the indicated amounts of the anti-Ror2 antibody or non-specific IgG for 24 h, and luciferase activity was assessed. Luciferase activity observed upon treatment with the non-specific IgG was set at 1. […]
The TrkB receptor is activated by ligand-induced homo-dimerization that causes phosphorylation of Erk and stimulation of the cAMP response element (CRE) in the promoter of target genes. […] Colonies were grown at 37 C with 350 μg/ml hygromycin and levels of Ror2-TrkB expression were assessed by western immunoblotting and immunocytochemistry. […]
(Reporter assays use an easily measured gene product as a stand-in for the process of interest.)

The target in data set [2] is T4, purified recombinant human GST-14-3-3β (Biomol), P31946.
T4 chain: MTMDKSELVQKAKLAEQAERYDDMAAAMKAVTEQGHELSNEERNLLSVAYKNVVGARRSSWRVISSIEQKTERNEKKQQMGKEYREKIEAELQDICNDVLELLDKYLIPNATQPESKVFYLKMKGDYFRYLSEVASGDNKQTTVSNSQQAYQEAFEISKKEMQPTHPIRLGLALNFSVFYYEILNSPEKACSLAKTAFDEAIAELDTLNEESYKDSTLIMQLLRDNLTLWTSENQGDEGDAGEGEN

T1 sequence (Q01974 34-943): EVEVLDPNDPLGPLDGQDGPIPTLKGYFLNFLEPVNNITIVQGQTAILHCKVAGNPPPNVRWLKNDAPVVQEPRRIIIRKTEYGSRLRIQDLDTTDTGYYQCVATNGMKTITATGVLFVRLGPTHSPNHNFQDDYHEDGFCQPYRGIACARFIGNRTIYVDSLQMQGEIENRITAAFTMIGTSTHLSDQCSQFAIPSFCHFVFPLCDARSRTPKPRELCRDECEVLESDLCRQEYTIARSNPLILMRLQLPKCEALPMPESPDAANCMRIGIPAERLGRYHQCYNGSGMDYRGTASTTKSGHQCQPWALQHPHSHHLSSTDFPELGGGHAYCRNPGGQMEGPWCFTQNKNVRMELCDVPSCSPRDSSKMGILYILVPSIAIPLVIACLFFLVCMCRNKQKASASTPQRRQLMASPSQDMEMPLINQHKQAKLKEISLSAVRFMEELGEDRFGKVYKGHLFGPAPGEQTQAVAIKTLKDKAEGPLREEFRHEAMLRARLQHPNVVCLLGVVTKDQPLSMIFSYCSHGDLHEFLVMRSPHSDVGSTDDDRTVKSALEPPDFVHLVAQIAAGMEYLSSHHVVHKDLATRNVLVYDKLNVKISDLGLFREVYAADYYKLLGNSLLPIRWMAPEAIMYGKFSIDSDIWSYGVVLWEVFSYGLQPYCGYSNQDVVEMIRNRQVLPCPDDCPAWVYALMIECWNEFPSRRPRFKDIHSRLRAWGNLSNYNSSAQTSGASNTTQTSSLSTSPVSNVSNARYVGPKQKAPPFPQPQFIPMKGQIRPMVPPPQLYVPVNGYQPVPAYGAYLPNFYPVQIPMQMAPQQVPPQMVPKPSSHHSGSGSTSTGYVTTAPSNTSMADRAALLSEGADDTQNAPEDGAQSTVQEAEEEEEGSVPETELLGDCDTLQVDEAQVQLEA
T1 sequence (Q01974 34-943): as above
T2 sequence (Q01974 34-943): as above
T3 sequence (Q01974 with tags, fused parts or gaps T245A): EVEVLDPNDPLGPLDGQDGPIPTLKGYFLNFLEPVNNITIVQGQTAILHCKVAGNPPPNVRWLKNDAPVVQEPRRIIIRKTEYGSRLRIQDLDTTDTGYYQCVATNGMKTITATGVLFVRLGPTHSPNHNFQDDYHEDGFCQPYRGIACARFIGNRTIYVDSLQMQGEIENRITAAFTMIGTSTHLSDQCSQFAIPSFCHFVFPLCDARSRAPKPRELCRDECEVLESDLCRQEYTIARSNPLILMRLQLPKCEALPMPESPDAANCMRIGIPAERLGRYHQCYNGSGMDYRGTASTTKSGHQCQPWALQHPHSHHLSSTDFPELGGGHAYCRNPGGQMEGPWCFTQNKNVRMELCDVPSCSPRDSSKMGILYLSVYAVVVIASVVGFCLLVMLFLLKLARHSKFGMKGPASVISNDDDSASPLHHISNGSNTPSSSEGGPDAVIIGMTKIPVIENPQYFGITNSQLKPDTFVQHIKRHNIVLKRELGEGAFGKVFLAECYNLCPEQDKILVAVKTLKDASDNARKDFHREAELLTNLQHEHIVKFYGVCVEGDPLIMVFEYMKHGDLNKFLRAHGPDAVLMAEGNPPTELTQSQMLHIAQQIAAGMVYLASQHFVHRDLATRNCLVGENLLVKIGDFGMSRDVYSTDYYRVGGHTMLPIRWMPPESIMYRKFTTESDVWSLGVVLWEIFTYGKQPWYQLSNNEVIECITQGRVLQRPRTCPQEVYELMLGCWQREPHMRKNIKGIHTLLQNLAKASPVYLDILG

As to “anti-Ror2 antibody: Ror2-specific goat polyclonal IgG raised against the extracellular domain of human Ror2, R&D Systems, AF2064”, the “antibody effect on matrix mineralization when Ror2 expression is inhibited” value in data set [1] (hMSC infected with Ror2-specific shRNA, 100 nM dex, 9 days) is “disappeared”. Further, the “calcified matrix formation in absence of dex” value in data set [1] (hMSC infected with Ror2 adenovirus, no dex, 19 days, vs non-specific goat IgG) is listed as “induced calcified matrix formation”. Besides, the “extent of calcified matrix formation (alizarin red-S)” value in data set [1] (hMSC, osteogenic cocktail with 100 nM dex, increasing amounts of IgG, 9 days) was “dose-dependently increased”. Also, the “Ror2 homodimer formation (His-tagged with Flag-tagged Ror2)” value with Ror2 receptor is listed as “strongly enhanced”. Besides, the “autophosphorylation of the Ror2 kinase” value with Ror2 tyrosine kinase is reported as “significant autophosphorylation”. In the data set on 14-3-3β protein, the “phosphorylation of 14-3-3β protein” value is “phosphorylation”. Moreover, in the data set with mouse calvarial bones, the “increase in the osteoblast number” value is 85% and the “increase in the total bone area” value is reported as 50%. The “luciferase activity (CRE promoter)” value in the data set with Ror2-TrkB chimera was “robust dose-dependent increase”.

B1: purified recombinant GST-tagged cytosolic domain of human Ror2 (Invitrogen) (protein)
chain: VCMCRNKQKASASTPQRRQLMASPSQDMEMPLINQHKQAKLKEISLSAVRFMEELGEDRFGKVYKGHLFGPAPGEQTQAVAIKTLKDKAEGPLREEFRHEAMLRARLQHPNVVCLLGVVTKDQPLSMIFSYCSHGDLHEFLVMRSPHSDVGSTDDDRTVKSALEPPDFVHLVAQIAAGMEYLSSHHVVHKDLATRNVLVYDKLNVKISDLGLFREVYAADYYKLLGNSLLPIRWMAPEAIMYGKFSIDSDIWSYGVVLWEVFSYGLQPYCGYSNQDVVEMIRNRQVLPCPDDCPAWVYALMIECWNEFPSRRPRFKDIHSRLRAWGNLSNYNSSAQTSGASNTTQTSSLSTSPVSNVSNARYVGPKQKAPPFPQPQFIPMKGQIRPMVPPPQLYVPVNGYQPVPAYGAYLPNFYPVQIPMQMAPQQVPPQMVPKPSSHHSGSGSTSTGYVTTAPSNTSMADRAALLSEGADDTQNAPEDGAQSTVQEAEEEEEGSVPETELLGDCDTLQVDEAQVQLEA
Regarding B1, in data set [2], the “in vitro kinase assay, immunoblot with phosphotyrosine antibody” value was “Ror2c phosphorylated both 14-3-3 β and itself”.
